Experimental data from patent US20240228491A1, “METHIONINE ADENOSYLTRANSFERASE INHIBITOR, PREPARATION METHOD THEREFOR AND APPLICATION THEREOF” (SCINNOHUB PHARMACEUTICAL CO., LTD., priority 2021, published 2024).

Columns and labels:
[1] = molecular target: MAT2a (Homo sapiens (Human), UniProt P31153); assay: MAT2a enzymatic activity test (colorimetric assay); assay type: biochemical; settings: OD620, 150 min reaction, read-out: IC50 against MAT2a
Procedure, shortened: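 MAT2a (20 μg/mL working solution) was preincubated 15 min with compound (10-point, 3-fold series from 1 or 10 μM) in Tris/KCl/MgCl2 buffer, pH 8.0. Reaction with 400 μM ATP and 600 μM L-methionine (substrate-mix concentrations) ran 150 min. Phosphate was detected by BIOMOL Green at OD620, with IC50 from log(inhibitor)-response fitting.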

[2] = system: HCT116 MTAP-/- cells; assay: Activity test of HCT116 MTAP gene homozygous deletion cells (CellTiter-Glo); assay type: cell-based; settings: Homo sapiens, HCT-116, 120 h incubation, read-out: HCT116 MTAP-/- Cell IC50
Procedure, shortened: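 Cells seeded at 1000-3000/well in RPMI-1640 + 10% FBS, serum-starved 4 h, then treated with compound in complete medium for 120 h at 37 °C, 5% CO2. Viability read by CellTiter-Glo luminescence after 60 min; % inhibition versus untreated and cell-free wells, IC50 from dose-response fit.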

[3] = system: KP-4 cells; assay: Inhibitory activity test of KP-4 cells; assay type: cell-based; settings: Homo sapiens, 144 h incubation, read-out: KP-4 cell inhibitory activity IC50
Description: On day 1, cell seeding: after digestion of the cells with trypsin, the cells were resuspended to 1*10^4/mL with RPMI1640 complete medium (HyClone Company, Cat. No. SH30809.01) supplemented with 10% FBS (Gibco, 10099141C), mixed evenly, and added into the 96-well plate at 100 μL/well. The plate was put back to the incubator for the adherent growth of cells. On day 2, the addition of the compounds to be tested: 100 μL of the complete medium containing the compounds (the concentration of the compound in the medium was formulated as follows: 3-fold gradient dilution from 60 μM, 10 concentration gradients in total) was added, incubated for 144 hours at 37° C., 5% CO2. On day 8, the cell culture plates were taken out from incubator and equilibrated to room temperature, excess medium was pipetted from the wells so that 50 μL of supernatant was retained, and 50 μL of CellCounting-Lite 2.0 (Nanjing Vazyme Biotech Co., Ltd., Cat. No. DD1101) reagent was added per well, and the cells were fully lysed by shaking at room temperature for 10 min, and incubated for 5 min to detect the fluorescence intensity.
% Inhibition=100−(signal of the well with the compound to be tested−signal of the well with only medium and free of cells)/(signal of the well with cells but without addition of the compound−signal of the well with only medium and free of cells)×100.
The log value of concentration was used as the X-axis and % Inhibition was used as the Y-axis, so as to fit the dose-effect curve and calculate the IC50 value using nonlinear regression (dose response−variable slope) in the analysis software GraphPad Prism 8.

MAT2a, sequence (P31153 whole entry): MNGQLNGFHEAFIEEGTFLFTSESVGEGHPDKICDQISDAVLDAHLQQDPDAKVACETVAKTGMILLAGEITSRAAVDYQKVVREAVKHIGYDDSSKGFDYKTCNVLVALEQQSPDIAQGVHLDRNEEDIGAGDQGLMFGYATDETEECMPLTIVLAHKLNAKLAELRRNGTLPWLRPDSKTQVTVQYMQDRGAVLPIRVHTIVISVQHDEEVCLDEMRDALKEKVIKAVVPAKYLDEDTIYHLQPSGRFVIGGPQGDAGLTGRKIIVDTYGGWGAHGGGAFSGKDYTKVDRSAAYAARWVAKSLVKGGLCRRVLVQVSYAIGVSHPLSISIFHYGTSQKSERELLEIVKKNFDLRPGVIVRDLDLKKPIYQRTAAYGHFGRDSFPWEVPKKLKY

Nc1c(-c2ccc3nccnc3c2)c(=O)n(-c2ccc(Cl)cc2)c2nc(C(F)(F)F)ccc12 [Example 36]
IC50 [1]: 13.6 nM
IC50 [2]: 7.43 nM
IC50 [3]: 360 nM
